pIC50, pKd: −log10 of the molar value. A value given as a limit tells only on which side of the number the result lay.

One assay has as its target T1, FLT3 kinase (Homo sapiens, UniProt P36888).
T1 construct: made in house; host or cells: T7 phage display or HEK-293 cells
T1 sequence (P36888 27-993): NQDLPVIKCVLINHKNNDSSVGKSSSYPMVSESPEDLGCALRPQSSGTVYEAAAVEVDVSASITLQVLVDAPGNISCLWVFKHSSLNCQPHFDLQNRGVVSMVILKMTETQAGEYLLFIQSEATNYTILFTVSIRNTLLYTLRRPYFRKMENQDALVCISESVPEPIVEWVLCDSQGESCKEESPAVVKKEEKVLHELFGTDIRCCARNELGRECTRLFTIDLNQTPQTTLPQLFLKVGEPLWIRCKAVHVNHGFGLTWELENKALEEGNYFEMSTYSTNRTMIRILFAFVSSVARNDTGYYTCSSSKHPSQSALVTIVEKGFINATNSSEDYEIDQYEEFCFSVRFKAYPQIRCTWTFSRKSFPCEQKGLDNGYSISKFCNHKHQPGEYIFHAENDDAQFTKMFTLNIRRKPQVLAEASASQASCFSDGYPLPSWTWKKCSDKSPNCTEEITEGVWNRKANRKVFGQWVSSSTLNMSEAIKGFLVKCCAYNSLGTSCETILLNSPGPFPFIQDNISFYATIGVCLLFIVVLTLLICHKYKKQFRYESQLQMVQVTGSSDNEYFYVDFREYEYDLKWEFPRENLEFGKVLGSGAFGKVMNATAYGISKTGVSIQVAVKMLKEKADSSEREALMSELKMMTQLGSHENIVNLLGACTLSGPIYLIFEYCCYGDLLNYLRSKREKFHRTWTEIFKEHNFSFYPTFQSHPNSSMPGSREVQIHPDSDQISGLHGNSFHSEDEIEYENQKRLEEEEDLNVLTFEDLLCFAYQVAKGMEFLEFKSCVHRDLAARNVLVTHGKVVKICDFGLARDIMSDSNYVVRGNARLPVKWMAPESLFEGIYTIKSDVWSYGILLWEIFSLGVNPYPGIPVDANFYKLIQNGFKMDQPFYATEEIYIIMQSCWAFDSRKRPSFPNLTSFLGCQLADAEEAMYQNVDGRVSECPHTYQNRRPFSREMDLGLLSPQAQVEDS
The assay can be described thus: Competition binding assay, FLT3 Kd. On the procedure:
(§1) In certain embodiments, competition binding assays were performed as described in Fabian et al., Nature Biotechnology 2005, 23,329-336.
(§2) Competition binding assays used herein were developed, validated and performed as described in Fabian et al., Nature Biotechnology 2005, 23,329-336. Kinases were produced as fusions to T7 phage (See, Fabian et al. or WO04/015142) or alternatively, the kinases were expressed in HEK-293 cells and subsequently tagged with DNA for PCR detection (See, WO08/005,310). For the binding assays, streptavidin-coated magnetic beads were treated with biotinylated affinity ligands for 30 min at room temperature to generate affinity resins. The liganded beads were blocked with excess biotin and washed with blocking buffer (SeaBlock (Pierce), 1% BSA, 0.05% Tween 20, 1 mM DTT) to remove unbound ligand and to reduce non-specific binding. Binding reactions were assembled by combining kinase, liganded affinity beads, and test compounds in 1× binding buffer (20% SeaBlock, 0.17×PBS, 0.05% Tween 20, 6 mM DTT). Test compounds were prepared as 100× stocks in DMSO and diluted into the aqueous environment. Kds were determined using an eleven point threefold serial dilutions. DMSO or control compounds were was added to control assays lacking a test compound. Primary screen assays were performed in polypropylene 384-well plates in a final volume of 20-40 μL, while Kd determinations were performed in polystyrene 96-well plates in a final volume of 135 μL. The assay plates were incubated at room temperature with shaking for 1 hour to allow the binding reactions to reach equilibrium, and the affinity beads were washed extensively with wash buffer (1×PBS, 0.05% Tween 20) to remove unbound protein. The beads were then resuspended in elution buffer (1×PBS, 0.05% Tween 20, 0.5 μM non-biotinylated affinity ligand) and incubated at room temperature with shaking for 30 min. The kinase concentration in the eluates was measured by quantitative PCR.

The next assay concerns the target T2, KIT kinase (Homo sapiens, UniProt P10721).
T2 construct: made in house; host or cells: T7 phage display or HEK-293 cells
The assay can be described thus: Competition binding assay, KIT Kd. Here is the method:
as §1, §2

Another assay deals with T3, CSF-1R kinase (Homo sapiens, UniProt P07333).
T3 construct: made in house; host or cells: T7 phage display or HEK-293 cells
T3 sequence (P07333 20-972): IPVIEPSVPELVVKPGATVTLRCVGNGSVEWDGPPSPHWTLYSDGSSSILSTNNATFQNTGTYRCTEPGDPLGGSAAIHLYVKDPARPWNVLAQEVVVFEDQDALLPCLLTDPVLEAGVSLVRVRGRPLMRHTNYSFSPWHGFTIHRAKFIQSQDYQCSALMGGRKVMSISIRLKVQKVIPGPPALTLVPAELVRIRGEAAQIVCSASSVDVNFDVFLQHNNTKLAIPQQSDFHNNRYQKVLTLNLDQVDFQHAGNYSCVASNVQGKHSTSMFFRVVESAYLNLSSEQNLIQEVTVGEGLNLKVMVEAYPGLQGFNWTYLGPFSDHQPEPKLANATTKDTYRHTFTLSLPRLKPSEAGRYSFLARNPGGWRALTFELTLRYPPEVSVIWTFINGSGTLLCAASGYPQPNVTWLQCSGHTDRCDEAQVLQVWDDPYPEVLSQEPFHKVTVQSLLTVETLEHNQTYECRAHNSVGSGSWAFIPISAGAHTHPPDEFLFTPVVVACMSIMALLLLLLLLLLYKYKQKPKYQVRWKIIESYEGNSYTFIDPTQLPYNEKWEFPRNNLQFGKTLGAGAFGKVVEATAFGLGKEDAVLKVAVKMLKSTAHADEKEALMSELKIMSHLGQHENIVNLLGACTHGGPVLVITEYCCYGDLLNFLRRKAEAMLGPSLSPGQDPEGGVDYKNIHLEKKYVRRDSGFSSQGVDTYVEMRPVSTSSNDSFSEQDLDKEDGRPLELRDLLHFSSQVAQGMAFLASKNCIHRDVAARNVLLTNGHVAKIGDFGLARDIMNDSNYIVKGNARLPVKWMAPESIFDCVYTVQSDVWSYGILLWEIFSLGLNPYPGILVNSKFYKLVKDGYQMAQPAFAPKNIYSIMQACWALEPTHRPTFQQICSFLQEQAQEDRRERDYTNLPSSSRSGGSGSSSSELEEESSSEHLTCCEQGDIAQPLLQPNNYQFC
Kind of assay: Competition binding assay, CSF-1R Kd. On the procedure: as §1, §2

A further assay concerns MV4-11 cells. Kind of assay: MV4-11 cell proliferation assay (Alamar Blue). Format: cell-based. Conditions: Homo sapiens, MV4-11, 72 h, 3 days incubation. On the procedure:
The compounds disclosed herein were tested in an MV4-11 cell proliferation assay to determine their cellular potency against Flt3. MV4-11 cells carry ITD mutation within juxtamembrane domain of Flt3 kinase which renders the kinase constitutively active. […] This assay measures the potency of compounds as Flt3 inhibitors by measuring the reduction of Alamar Blue reagent by viable cells.
MV4-11 cells were grown in an incubator at 37° C. under 5% CO2 in Iscove's media (Celgro) with 10% FBS. The cell density was kept between 1e5 and 8e5 cells/mL.
On day one of the experiment, cells were harvested and spun at 500 g for 5 min at 4° C., the supernatant aspirated and the cells resuspended in Iscove's media with 0.5% FBS. Cell density was maintained at 7.5e5 to achieve maximum viability of the cells. The resuspended cells were incubated at 37° C. in 5% CO2 overnight.
On day two of the experiment, cells were diluted to 6.4e5/mL with Iscove's media with 0.5% FBS. 100 μL of the cell suspension (64,000 cells) were aliquoted into each well of a 96-well TC-treated plate. Compounds were added at 9 different concentrations, with half-log intervals alongside a control reference compound serving as a positive control. Final DMSO concentration was kept at 0.5% and final volume at 200 μL. The cells were then incubated at 37° C. under 5% CO2 for 3 days.
On day five of the experiment, 40 μL of Alamar Blue reagent was added to each well and the mixture was allowed to incubate for 3 hours. Alamar Blue fluorescence was measured using SoftMax Pro software at 560 nm (excitation) and 590 nm (emission). IC50s were generated as an average of duplicates and represents the concentration of test compound that achieves 50% inhibition of cellular proliferation compared to negative control.
(The colour change of resazurin is a common sign of viable cells or microbes.)

T2 sequence (P10721 26-976): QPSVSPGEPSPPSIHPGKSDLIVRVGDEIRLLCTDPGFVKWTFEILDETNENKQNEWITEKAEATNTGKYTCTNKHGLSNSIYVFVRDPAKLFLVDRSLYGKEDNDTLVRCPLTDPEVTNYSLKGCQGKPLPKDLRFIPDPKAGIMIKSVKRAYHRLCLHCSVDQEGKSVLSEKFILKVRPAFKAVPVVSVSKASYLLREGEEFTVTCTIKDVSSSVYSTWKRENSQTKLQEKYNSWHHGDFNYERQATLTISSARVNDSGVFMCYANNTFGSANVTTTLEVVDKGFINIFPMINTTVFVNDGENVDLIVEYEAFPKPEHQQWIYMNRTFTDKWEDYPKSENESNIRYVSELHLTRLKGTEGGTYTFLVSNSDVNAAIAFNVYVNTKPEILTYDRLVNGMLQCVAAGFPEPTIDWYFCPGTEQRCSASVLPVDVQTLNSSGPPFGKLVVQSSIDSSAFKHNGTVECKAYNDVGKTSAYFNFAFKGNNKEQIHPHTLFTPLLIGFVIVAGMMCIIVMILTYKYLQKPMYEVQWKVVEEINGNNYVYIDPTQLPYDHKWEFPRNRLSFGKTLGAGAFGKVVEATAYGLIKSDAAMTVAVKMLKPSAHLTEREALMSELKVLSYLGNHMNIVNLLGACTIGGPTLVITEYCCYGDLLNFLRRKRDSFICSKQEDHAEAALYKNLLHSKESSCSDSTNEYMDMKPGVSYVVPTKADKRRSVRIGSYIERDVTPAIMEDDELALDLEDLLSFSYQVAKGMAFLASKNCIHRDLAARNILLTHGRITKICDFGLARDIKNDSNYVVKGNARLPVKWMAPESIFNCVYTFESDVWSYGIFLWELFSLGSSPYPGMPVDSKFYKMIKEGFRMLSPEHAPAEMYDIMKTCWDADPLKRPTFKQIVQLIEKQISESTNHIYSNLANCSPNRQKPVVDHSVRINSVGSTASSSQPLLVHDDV

In the case of `CC(C)(c1cc(NC(=O)Nc2ccc(-c3ccc(NCCN4CCOCC4)nc3)cc2)no1)C(F)(F)F` [Example 39, 4-(2-(5-(4-(3-(5-(1,1,1-trifluoro-2-methylpropan-2-yl)isoxazol-3-yl)ureido)phenyl)pyridin-2-ylamino)ethyl)morpholin-4-ium methanesulfonate], the pKd on FLT3 kinase was at least 9.00; on KIT kinase it was 8.00 to 9.00; at CSF-1R kinase, at least 8.00. In the assay on MV4-11 cells, the pIC50 was 8.00 to 9.00.
Consider `Nc1ccc(-c2ccc(NC(=O)Nc3cc(C4(C(F)(F)F)CC4)on3)nc2)cn1` [Example 40, 1-(6′-amino-3,3′-bipyridin-6-yl)-3-(5-(1-(trifluoromethyl)cyclopropyl)isoxazol-3-yl)urea], for which the pKd on FLT3 kinase is at least 9.00; on KIT kinase, at least 9.00; at CSF-1R kinase, at least 8.00. Also, the pIC50 with MV4-11 cells is 8.00 to 9.00.
As to `CC(CF)(CF)c1cc(NC(=O)Nc2ccc(-c3ccc(N)nc3)cn2)no1` [Example 41, 1-(6′-amino-3,3′-bipyridin-6-yl)-3-(5-(1,3-difluoro-2-methylpropan-2-yl)isoxazol-3-yl)urea], the pKd on FLT3 kinase was at least 9.00; on KIT kinase it was at least 9.00; on CSF-1R kinase, at least 8.00. The compound also had a pIC50 with MV4-11 cells of 8.00 to 9.00.
Take `CC(C)(F)c1cc(NC(=O)Nc2ccc(-c3ccc(N)nc3)cn2)on1` [Example 42, 1-(6′-amino-3,3′-bipyridin-6-yl)-3-(3-(2-fluoropropan-2-yl)isoxazol-5-yl)urea]: the negative-log Kd (pKd) is 8.00 to 9.00 at FLT3 kinase, at least 9.00 on KIT kinase and at least 8.00 at CSF-1R kinase. Also, the pIC50 in the assay on MV4-11 cells was 7.00 to 8.00.
The corresponding values for `CC(C)(c1cc(NC(=O)Nc2ccc(-c3ccc(N)nc3)cn2)no1)C(F)(F)F` [Example 43, 1-(6′-amino-3,3′-bipyridin-6-yl)-3-(5-(1,1,1-trifluoro-2-methylpropan-2-yl)isoxazol-3-yl)urea] are at least 9.00, at least 9.00, at least 8.00 and 8.00 to 9.00.
The corresponding values for `COc1cc(-c2ccc(N)nc2)ccc1NC(=O)Nc1cc(C(C)(CF)CF)on1` [Example 68, 5-(4-(3-(5-(1,3-difluoro-2-methylpropan-2-yl)isoxazol-3-yl)ureido)-3-methoxyphenyl)pyridin-2-aminium methanesulfonate] are 8.00 to 9.00, 8.00 to 9.00, at least 8.00 and 7.00 to 8.00.
The like results for `COc1cc(-c2ccc(N)nc2)ccc1NC(=O)Nc1cc(C(C)(C)C)on1` [Example 69, 5-(4-(3-(5-tert-butylisoxazol-3-yl)ureido)-3-methoxyphenyl)pyridin-2-aminium methanesulfonate] were, in that order, 8.00 to 9.00, at least 9.00, at least 8.00 and 7.00 to 8.00.
For `CC(C)(C)c1cc(NC(=O)Nc2ccc(-c3ccc(N)nc3)cc2)on1` [Example 70, 5-(4-(3-(3-tert-butylisoxazol-5-yl)ureido)phenyl)pyridin-2-aminium methanesulfonate], the pKd on FLT3 kinase is 8.00 to 9.00; on KIT kinase, 8.00 to 9.00; on CSF-1R kinase, at least 8.00. In addition, in the assay on MV4-11 cells, the pIC50 was at least 9.00.
Turning to `CC(C)(c1cc(NC(=O)Cc2ccc(-c3ccc(N)nc3)cc2)no1)C(F)(F)F` [Example 72, 5-(4-(2-oxo-2-(5-(1,1,1-trifluoro-2-methylpropan-2-yl)isoxazol-3-ylamino)ethyl)phenyl)pyridin-2-aminium acetate], the values for the pKd at FLT3 kinase, at KIT kinase and on CSF-1R kinase were at least 9.00, 8.00 to 9.00 and at least 8.00, respectively. The pIC50 in the assay with MV4-11 cells is at least 9.00.
Consider `CC(C)(C)c1cc(NC(=O)Cc2ccc(-c3cnc(N)nc3)cc2)no1` [Example 74, 2-(4-(2-aminopyrimidin-5-yl)phenyl)-N-(5-tert-butylisoxazol-3-yl)acetamide], for which the results for the pKd on FLT3 kinase, at KIT kinase and on CSF-1R kinase were at least 9.00, 8.00 to 9.00 and at least 8.00, respectively. Also, the pIC50 in the assay with MV4-11 cells was at least 9.00.
As for `CC(C)(C)c1cc(NC(=O)Cc2ccc(-c3cnc(NCCN4CCOCC4)nc3)cc2)no1` [Example 75, N-(5-tert-butylisoxazol-3-yl)-2-(4-(2-(2-morpholinoethylamino)pyrimidin-5-yl)phenyl)acetamide], the pKd on FLT3 kinase is at least 9.00; on KIT kinase, 8.00 to 9.00; at CSF-1R kinase, at least 8.00. Further, the pIC50 with MV4-11 cells is at least 9.00.
With `CC(C)(C)c1cc(NC(=O)Cc2ccc(-c3ccc(N)nc3)cn2)no1` [Example 76, 2-(6′-amino-3,3′-bipyridin-6-yl)-N-(5-tert-butylisoxazol-3-yl)acetamide], the figures for the pKd on FLT3 kinase, at KIT kinase and at CSF-1R kinase were at least 9.00, at least 9.00 and at least 8.00, respectively. In the assay with MV4-11 cells, this compound gave a pIC50 of 8.00 to 9.00.
As for `CC(C)(C)c1cc(NC(=O)Cc2ccc(-c3cnc(N)nc3)cn2)no1` [Example 77, 2-(5-(2-aminopyrimidin-5-yl)pyridin-2-yl)-N-(5-tert-butylisoxazol-3-yl)acetamide], the pKd at FLT3 kinase was at least 9.00; at KIT kinase, 8.00 to 9.00; on CSF-1R kinase it was at least 8.00. For the same compound, the pIC50 in the assay with MV4-11 cells is 8.00 to 9.00.
For `CC(C)(C)c1cc(NC(=O)Cc2ccc(-c3cnc(N)nc3)cc2F)no1` [Example 79, 2-(4-(2-aminopyrimidin-5-yl)-2-fluorophenyl)-N-(5-tert-butylisoxazol-3-yl)acetamide], the pKd at FLT3 kinase was at least 9.00; on KIT kinase, 8.00 to 9.00; at CSF-1R kinase, at least 8.00. For the same compound, the pIC50 in the assay on MV4-11 cells was at least 9.00.
With `CC(C)(CO)c1cc(NC(=O)Nc2ccc(-c3ccc(N)nc3)cc2)no1` [Example 80, 1-(4-(6-aminopyridin-3-yl)phenyl)-3-(5-(1-hydroxy-2-methylpropan-2-yl)isoxazol-3-yl)urea], the pKd at FLT3 kinase was at least 9.00; at KIT kinase it was at least 9.00; at CSF-1R kinase it was at least 8.00. Also, the pIC50 in the assay with MV4-11 cells is 8.00 to 9.00.

The term pKd denotes the Kd on a negative log10 scale, so that one unit is a factor of ten. The low end stands for a high Kd, the high end for a low Kd. The term pIC50 denotes the negative decadic logarithm of the IC50, by convention in mol/L.
